Data: publication PMC8400542, “Anti-Inflammatory, Antipyretic, and Analgesic Properties of Potamogeton perfoliatus Extract: In Vitro and In Vivo Study” (Molecules, 2021)

Experiments:
[1] = system: heat-induced nociceptive pain in mice; test: Hot plate test (central antinociception); conditions: 10 mg/kg
Experimental: To investigate the possible central analgesic activity of the studied extract, the hot plate test was performed according to Sobeh et al. [3]. […] One hour later, each individual mouse was placed on a hot plate preheated at 55 ± 1 °C and observed for any response to the heat-induced nociceptive pain (licking the fore and hind paws, hind paw lifting, or jumping). […] The overall antinociceptive activity of the extract was estimated by calculating the area under the curve (AUC) for the latency responses at the stated time points using GraphPad Prism.
(B) Hot plate response latency (s) assay. (C) AUC of response latency shown in panel (B).

[2] = system: carrageenan-induced leukocyte migration in mice; conditions: cited from earlier work
[3] = Total antioxidant capacity (TAC) ELISA kit assay; conditions: mean ± SE
Experimental: The antioxidant potential of the extract was evaluated by determining its TAC using a TAC ELISA kit (MBS726896, my BioSource, Inc., San Diego, CA, USA) in accordance with the manufacturer’s instructions and compared to the standard antioxidant, ascorbic acid as previously described Sobeh et al..

[4] = target: 5-lipoxygenase (LOX); test: Lipoxygenase inhibition, enzyme immunoassay kit; assay type: biochemical; conditions: mean ± SE
Experimental: The in vitro enzymatic activities were determined, utilizing enzyme immunoassay kits (Cayman Chemical, Ann Arbor, MI, USA) following the manufacturer’s instructions and the study by Adellall et al..

[5] = system: carrageenan-induced leukocyte migration in mice; test: Carrageenan-induced leukocyte migration into the peritoneal cavity; assay type: in vivo, mouse; conditions: 20 mg/kg, p.o.
Experimental: Three hours later, the mice were euthanized, and each peritoneal cavity was washed with 3 mL of phosphate-buffered saline (PBS) containing 1 mM EDTA. The total leukocyte count was determined in each peritoneal cavity wash using a hemocytometer and presented as number of cells/mL [3].
(§1) Figure 3 (A) Results from P. perfoliatus extract on carrageenan-induced leukocyte migration into the peritoneal cavity in mice (total number × 10^6). […] (B) Results from P. perfoliatus extract on acetic acid-induced vascular permeability. Mice received different treatments 1 h before acetic acid (0.6%, i.p.) and Evans blue dye injections. The amount of dye extravasation into the abdominal cavity was quantified and used as an indicator of inflammation degree. The results are shown as means ± SEM (n = 5–6). * p < 0.05 compared to saline group. ^# p < 0.05 compared to control (carrageenan or acetic acid only treated group).

[6] = system: acetic acid-induced vascular permeability in mice; test: Acetic acid-induced vascular permeability (Evans blue); assay type: in vivo, mouse; conditions: 20 mg/kg, p.o., compared to control mice
Experimental: To study the effect of the extract on the vascular phase of inflammation, acetic acid-induced vascular permeability was performed as described previously by Sobeh et al.. […] One hour later, Evans blue (0.25% solution in normal saline, 0.2 mL) was injected in the tail vein. Acetic acid (0.6% in normal saline, 1 mL/100 g) was then injected after 30 min in the peritoneal cavity of the treated mice. The normal control was injected with normal saline only. Mice were euthanized 30 min later by cervical dislocation, the abdominal cavities were washed with 3 mL saline solution and the collected washings were then centrifuged at 3000 rpm for 10 min. The vascular permeability is proportional to the absorbance of Evans blue dye in the supernatant, which was measured at 610 nm using a plate reader (Biotek, Winooski, VT, USA).
as §1, with “The results are shown as means ± SEM (n = 5–6). * p < 0.05 compared to saline group. ^# p < 0.05 compared to control (carrageenan or acetic acid only treated group).” left out

[7] = system: acetic acid-induced writhing in mice; test: Acetic acid-induced abdominal writhing; conditions: 20 mg/kg, p.o.
Experimental: The peripheral analgesic activity of the extract was evaluated by the acetic acid-induced writhing model in mice according to Sobeh et al. [3]. […] The number of writhes, manifested as extension of hind legs, constriction of abdomen, or turning of trunk was evaluated within 25 min. The reduction in the number of writhes as compared to the control group is indicative of the analgesic potential of the extract [3]. The percent inhibition of writhing was calculated using the following formula as previously reported [18]. % Analgesic activity = (mean writhing count (control-treatment)/mean writhing count (control)).
The data results were quantified at one-hour intervals after administration of either the extract (200 and 400 mg/kg, p.o.) or nalbuphine (10 mg/kg, p.o.).

[8] = system: carrageenan-induced paw edema in rats; conditions: 20 mg/kg, compared to the control group; cited from earlier work
[9] = system: Brewer's yeast-induced pyrexia in mice; test: Brewer's yeast-induced pyrexia; assay type: in vivo, mouse; conditions: 150 mg/kg
Experimental: Pyrexia in mice was induced as previously reported by Liu et al. with minor modifications. The animals’ initial rectum temperature was determined using a lubricated digital thermometer. Suspension of Brewer’s yeast was prepared in normal saline (30%) and injected subcutaneously behind the neck of the animal (1 mL/100 g). After 18 h, rectal temperatures of the mice were determined again (T0). […] Pyretic animals received P. perfoliatus extract (200, 400, and 600 mg/kg, orally), paracetamol (150 mg/kg), or vehicle. Rectal temperatures were measured at 30 min, 1, 2, 3 and 24 h following the different treatments.

Oc1ccc2c3c1O[C@H]1[C@@H](O)CC[C@@]4(O)[C@@H](C2)N(CC2CCC2)CC[C@]314 [nalbuphine]
increase in AUC of thermal response latency vs control [1]: 154.7%

O=C(O)/C=C/c1ccc(O)c(O)c1 [caffeic acid]
effect on leukocyte migration [2]: inhibited leukocyte migration

O=C(/C=C/c1ccc(O)c(O)c1)O[C@@H]1C[C@](O)(C(=O)O)C[C@@H](O)[C@H]1O [chlorogenic acid]
effect on leukocyte migration [2]: inhibited leukocyte migration

O=C1O[C@H]([C@@H](O)CO)C(O)=C1O [Ascorbic acid]
TAC [3]: 28.27 ± 1.83 U/L

O=C(O)Cc1ccccc1Nc1c(Cl)cccc1Cl [Diclofenac]
LOX IC50 [4]: 2.83 ± 0.07 µg/mL
decrease of the number of leukocytes [5]: 42%
inhibition of vascular permeability [6]: 67%
reduction of the control writhes [7]: 67%

O=C(O)c1ccc(O)cc1 [p-Hydroxybenzoic acid]
effect on edema thickness [8]: significantly decreased the edema thickness

CC(=O)Nc1ccc(O)cc1 [Paracetamol]
Rectal Temperature Recorded Following Different Treatments ([9]; 0.5 h): 38.14 ± 0.19 °C
Rectal Temperature Recorded Following Different Treatments ([9]; 1 h): 37.50 ± 0.31 °C
Rectal Temperature Recorded Following Different Treatments ([9]; 2 h): 37.12 ± 0.29 °C
Rectal Temperature Recorded Following Different Treatments ([9]; 3 h): 36.96 ± 0.24 °C
Rectal Temperature ([9]; 18 h after yeast injection (T0, before treatment)): 38.60 ± 0.18 °C
Rectal Temperature Recorded Following Different Treatments ([9]; 24 h): 36.50 ± 0.22 °C
